US10046046B2, “Amino sphingoglycolipid analogues” (Victoria Link Limited, priority 2014, dated 2018)
“Also recorded” adds a separate entry of the source. Square brackets hold non-standard residues; d marks the D form. Peptide text beside a SMILES is read from it. * marks the point of attachment. ξ: configuration not given here. X1 = CCCCCCCCCCCCCCCCCCCCCCCCCC(=O)N[C@@H](CO[C@H]1OC(CNC(=O)OCOC(=O)CC/C(C)=N/OCC(=O)*)[C@H](O)[C@H](O)C1O)[C@H](O)[C@H](O)CCCCCCCCCCCCCC; ξF = NC(Cc1ccccc1)C(=O)O

Tests used:
CD11c+ dendritic cells = assay: CD86 expression on splenic dendritic cells; assay type: in vivo, C57BL/6 mice; conditions: 0.571 nmol intravenously, spleens removed 20 h later, n=3, FIG. 3
Experimental: Groups of C57BL/6 mice (n=3) are injected intravenously with 0.571 nmol of the indicated compounds and then the spleens removed 20 h later for the analysis of CD86 expression on CD11c^+ dendritic cells by antibody labelling and flow cytometry. Mean fluorescence index (MFI)±SEM are presented. *P<0.05, *P<0.01, ***P<0.001
Antibody staining and flow cytometry is used to examine the expression of maturation markers on dendritic cells in the spleen following injection of compounds of the invention (0.23 nmol). Splenocyte preparations are prepared by gentle teasing of splenic tissue through gauze in Iscove's Modified Dulbecco's Medium with 2 mM glutamine, 1% penicillin-streptomycin, 5×10^-5 M 2-mercapto-ethanol and 5% fetal bovine serum (all Invitrogen, Auckland, New Zealand), followed by lysis of red blood cells with RBC lysis buffer (Puregene, Gentra Systems, Minneapolis, Minn., USA). Antibody staining is performed in PBS 2% fetal bovine serum and 0.01% sodium azide. The anti-FcgRII monoclonal antibody 2.4G2 is used at […] to inhibit non-specific staining. Monoclonal antibodies (all BD Biosciences Pharmingen, San Jose, Calif., USA) are used to examine expression of the maturation markers CD40, CD80 and CD86 on CD11c+ dendritic cells.

[1] = system: NKT cell activity (CD86 on B cells in the peripheral blood); assay: CD86 expression on peripheral blood B cells as readout of NKT cell activity; assay type: in vivo, C57BL/6 mice; conditions: 0.23 nmol intravenously, blood collected 20 h later, n=3, FIG. 1
Experimental: Groups of C57BL/6 mice (n=3) are injected intravenously with 0.23 nmol of the indicated glycolipid compounds and then the blood samples collected 20 h later for the analysis of CD86 expression on CD45 (B220)+B cells by antibody labelling and flow cytometry. Mean fluorescence index (MFI)±SEM are presented, *P<0.05, *P<0.01, ***P<0.001.
Each compound of the invention is supplied as formulated product (see example 3), and diluted in phosphate-buffered saline (PBS) for injection (0.23 nmol/mouse) by intravenous injection into the lateral tail vein. In humans the expected therapeutic dose lies in the 50-4800 (μg/m^2) range (Giaccone, Punt et al. 2002). Note, 0.23 nmol in a mouse is a human equivalent dose of 30 μg/m^2 for α-GalCer.
All antibody labelling is performed on ice in FACS buffer (PBS supplemented with 1% FCS, 0.05% sodium azide, and 2 mM EDTA). Non-specific FcR-mediated antibody staining is blocked by incubation for 10 min with anti-CD16/32 Ab (24G2, prepared in-house from hybridoma supernatant). Flow cytometry is performed on a BD Biosciences FACSCalibur or BD LSRII SORP flow cytometer with data analysis using FlowJo software (Tree Star, Inc., OR, USA).
Antibody staining and flow cytometry are used to examine the expression of the maturation markers CD86 on peripheral blood B cells following injection of compounds of the invention. […]

[2] = system: SIINFEKL-specific T cells; assay: Peptide-specific T cell proliferation in vivo (OT-1 transfer); design: species or system C57BL/6 mice; conditions: intravenous vaccination one day after transfer of 10,000 OT-1 cells, equivalent molar dose of SIINFEKL, blood after seven days, FIG. 2
Experimental: The compounds are injected to give the equivalent molar dose of SIINFEKL (SEQ ID NO: 262) peptide in each case. To increase sensitivity of the assay, all mice are initially donated a cohort of 10,000 SIINFEKL-specific T cells from a transgenic mouse encoding a T cell receptor for this antigen (OT-1 mice) by intravenous injection of the cells one day before the vaccines are administered. […] It is therefore possible to enumerate SIINFEKL-specific T cells in blood by flow cytometry using antibodies for CD45.1 together with antibodies for the transgenic T cell receptor (Vα2). Control animals (naïve) are injected with the diluent phosphate-buffered saline (PBS). […] Each dot represents a different animal; mean per treatment group±SEM are presented. *P<0.05, *P<0.01, ***P<0.001
Pooled lymph node cell suspensions are prepared from animals of a cross between OT-1 mice, which express a transgenic T cell receptor (TCR) specific for the ovalbumin epitope SIINFEKL (SEQ ID NO: 262)-in the context of H-2K^b molecules, and B6.SJL-Ptprc^a Pepc^b/BoyJ mice, which are congenic with C57BL/6 mice for the CD45.1^+ marker. The samples are enriched for CD8^+ cells using antibody coated magnetic beads (Miltenyi), and then transferred into C57BL/6 mice (1×10^4 per mouse). Groups of recipient animals (n=5) are immunized with compounds of the invention one day later. […]

mouse NKT cells = conditions: Kawano, Cui et al. 1997; cited from earlier work
[3] = Ebensen, Link et al. 2007; cited from earlier work
human NKT cells = conditions: Kawano, Cui et al. 1997; cited from earlier work
B16.OVA melanoma cells = assay: Anti-tumour activity against subcutaneous B16.OVA tumours; assay type: in vivo, C57BL/6 mice; conditions: 0.571 nmol intravenously five days after tumour challenge, n=5, FIG. 5
Experimental: Progression of subcutaneous B16.OVA tumours is monitored in animals treated five days after tumour challenge with intravenous CI-017 or CN159 peptide and α-GalCer or with PBS. The mean tumour sizes per group (n=5)±SEM are shown.
Groups of C57BL/6 mice (n=5) receive a subcutaneous injection into the flank of 1×10^5 B16.OVA melanoma cells, which express a cDNA encoding the chicken ovalbumin (OVA) sequence. The different groups are treated five days later by intravenous injection of one of the following; CI-017 (0.571 nmol), peptide CN159 (0.571 nmol) mixed with α-GalCer (0.571 nmol), or PBS. Mice are monitored for tumour growth every 3-4 days, and tumour size for each group calculated as the mean of the products of bisecting diameters (±SEM). Measurements are terminated for each group when the first animal develops a tumour exceeding 200 mm^2.

[4] = system: syngeneic splenocytes loaded ex vivo with SIINFEKL; assay: Peptide-specific T cell-mediated cytotoxicity in vivo (VITAL assay); design: species or system mice; conditions: 0.571 nmol intravenously, targets injected 7 days after vaccination, 5 animals per group, FIG. 4
Experimental: The compounds are injected to give the equivalent molar dose of SIINFEKL (SEQ ID NO: 262) peptide, in each case of 0.571 nmol. Flow cytometry is used to assess the killing of target cells comprised of syngeneic splenocytes loaded ex vivo with 5 μM SIINFEKL (SEQ ID NO: 262) injected intravenously 7 days after vaccination. To discriminate the targets from host tissue, the injected cells are labelled with the fluorescent dye carboxyfluorescein succinimidyl ester (CFSE). A cohort syngeneic splenocytes (without peptide) labelled with the fluorescent dye cell tracker orange are also injected to serve as controls. Killing is defined as the percentage of peptide-loaded targets killed relative to control cells. Each treatment group contained 5 animals. Control animals are injected with the diluent phosphate-buffered saline (PBS). […] Mean percentage of killing per group±SEM are shown. ***p<0.001
The cytotoxic capacity of induced CD8^+ T cell responses is measured by VITAL assay (Hermans, Silk et al. 2004). […] Specific lysis of the peptide-loaded targets is monitored by flow cytometry of blood or spleen samples 24 h later. Mean percent survival of peptide-pulsed (CFSE+) targets is calculated relative to that of the control population (CTO+), and cytotoxic activity is expressed as percent specific lysis (100−mean percent survival of peptide-pulsed targets).

For CCCCCCCCCCCCCCCCCCCCCCCCCC(=O)N[C@@H](CO[C@H]1OC(CN)[C@H](O)C(O)C1O)[C@H](O)[C@H](O)CCCCCCCCCCCCCC (some centres unmarked) [CN168], the “CD86 expression on CD11c+ dendritic cells in spleen (mean fluorescence index)” value (CD11c+ dendritic cells) was “potently activated dendritic cells”.
In the case of CCCCCCCCCCCCCCCCCCCCCCCCCC(=O)N[C@@H](CO[C@H]1OC(CNC(=O)OCOC(=O)CC/C(C)=N/OCC(=O)N[C@@H](Cc2ccccc2)C(=O)NC(Cc2ccccc2)C(=O)N[C@@H](CCCNC(=N)N)C(=O)N[C@@H](CCCCN)C(=O)N[C@@H](CO)C(=O)N[C@H](C(=O)N[C@H](C(=O)N[C@@H](CC(N)=O)C(=O)N[C@@H](Cc2ccccc2)C(=O)N[C@@H](CCC(=O)O)C(=O)N[C@@H](CCCCN)C(=O)N[C@@H](CC(C)C)C(=O)O)[C@@H](C)CC)[C@@H](C)CC)[C@H](O)[C@H](O)C1O)[C@H](O)[C@H](O)CCCCCCCCCCCCCC (stereo partly drawn) [CN169, (2S,3S,4R)-1-(6-Deoxy-6-(4-((2-(FFRKSIINFEKL)-2-(oxo)ethoxyimino)pentanoyloxy)methoxycarbonylamino)-α-D-galactopyranosyloxy)-2-hexacosanoylamino-3,4-octadecandiol] (X1-F[ξF]RKSIINFEKL-OH), the “CD86 expression on CD45 (B220)+ B cells in peripheral blood (mean fluorescence index)” value [1] is reported as “potently activate B cells” and the “SIINFEKL-specific T cells (Vα2+ CD45.1+) in blood” value [2] is reported as “increased antigen-specific T cell response; also recorded: larger population of peptide-specific T cells; also recorded: larger population of SIINFEKL-specific T cells”.
For CCCCCCCCCCCCCCCCCCCCCCCCCC(=O)N[C@@H](CO[C@H]1O[C@H](CO)[C@H](O)[C@H](O)[C@H]1O)[C@H](O)[C@H](O)CCCCCCCCCCCCCC [α-GalCer, α-Galactosylceramide], the “Activation of mouse NKT cells” value (mouse NKT cells) is listed as “potently activates”, the Solubility [3] is listed as “poor solubility” and the “Activation of human NKT cells” value (human NKT cells) is listed as “potently activates”.
For “(2S,3S,4R)-1-(6-Deoxy-6-(4-β-(FFRKSIINFEKL)-3-oxopropyl)-1H-1,2,3-triazol-1-yl)hexanoyl)-(N-Val-Cit-4-aminobenzyloxycarbonylamino)-1-(α-D-galactopyranosyloxy))-2-hexacosanoylamino-3,4-octadecandiol [CI-017]”, the “Anti-tumour activity (mean tumour size)” value (B16.OVA melanoma cells) was “superior anti-tumour activity” and the “SIINFEKL-specific cytotoxicity (percentage of peptide-loaded targets killed relative to control cells)” value [4] was “greater SIINFEKL (SEQ ID NO: 262)-specific cytotoxicity”.
